This is an account of results in ChEMBL document CHEMBL3792387, “A review on ROCK-II inhibitors: From molecular modelling to synthesis” (Bioorg Med Chem Lett, 2016).

Assay [1] in a line: Inhibition of PKA (unknown origin) using cyclic AMP response element binding protein as substrate after 5 mins in presence of [gamma-32P]-ATP. On the set-up: species or system Homo sapiens.
In assay [2] the target is Rho-associated protein kinase 2 (Homo sapiens, UniProt O75116). Briefly: Inhibition of ROCK-2 (unknown origin).
Sequence of Rho-associated protein kinase 2 (O75116 whole entry): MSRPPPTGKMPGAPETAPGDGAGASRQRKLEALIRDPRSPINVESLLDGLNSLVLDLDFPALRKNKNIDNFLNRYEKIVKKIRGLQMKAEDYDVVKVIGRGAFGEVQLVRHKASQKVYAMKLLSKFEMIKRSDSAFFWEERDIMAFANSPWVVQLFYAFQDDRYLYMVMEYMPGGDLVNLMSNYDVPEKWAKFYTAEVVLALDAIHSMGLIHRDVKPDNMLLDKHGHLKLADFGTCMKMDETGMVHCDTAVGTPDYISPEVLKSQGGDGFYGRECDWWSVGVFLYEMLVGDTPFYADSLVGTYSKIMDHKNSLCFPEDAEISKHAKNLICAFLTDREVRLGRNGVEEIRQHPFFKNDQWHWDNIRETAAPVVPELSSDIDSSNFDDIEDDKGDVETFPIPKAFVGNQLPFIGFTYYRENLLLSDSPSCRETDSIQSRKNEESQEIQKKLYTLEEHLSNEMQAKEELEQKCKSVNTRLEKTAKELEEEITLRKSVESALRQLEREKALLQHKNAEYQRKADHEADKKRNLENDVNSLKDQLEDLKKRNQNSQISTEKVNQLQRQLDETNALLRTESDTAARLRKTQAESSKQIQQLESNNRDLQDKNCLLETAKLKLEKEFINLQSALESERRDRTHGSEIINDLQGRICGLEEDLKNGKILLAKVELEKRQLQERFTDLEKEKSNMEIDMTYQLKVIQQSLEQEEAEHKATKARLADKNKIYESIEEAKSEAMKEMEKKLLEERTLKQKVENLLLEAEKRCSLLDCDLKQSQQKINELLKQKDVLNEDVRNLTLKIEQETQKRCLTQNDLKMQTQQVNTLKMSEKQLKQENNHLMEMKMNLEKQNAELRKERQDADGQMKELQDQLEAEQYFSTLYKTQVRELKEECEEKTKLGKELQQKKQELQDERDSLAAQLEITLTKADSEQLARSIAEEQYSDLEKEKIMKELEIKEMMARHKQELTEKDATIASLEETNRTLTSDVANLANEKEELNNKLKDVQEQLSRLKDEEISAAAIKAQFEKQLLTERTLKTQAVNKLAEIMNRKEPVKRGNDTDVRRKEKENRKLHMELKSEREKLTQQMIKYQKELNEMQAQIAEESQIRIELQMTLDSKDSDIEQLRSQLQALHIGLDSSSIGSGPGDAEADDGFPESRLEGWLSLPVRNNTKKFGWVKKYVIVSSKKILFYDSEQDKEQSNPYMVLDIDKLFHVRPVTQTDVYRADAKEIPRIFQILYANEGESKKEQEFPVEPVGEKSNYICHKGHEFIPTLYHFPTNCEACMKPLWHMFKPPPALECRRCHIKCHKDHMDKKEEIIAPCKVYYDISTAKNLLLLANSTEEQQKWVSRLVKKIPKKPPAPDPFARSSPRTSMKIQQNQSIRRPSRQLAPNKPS
In assay [3] the target is Rho-associated protein kinase 1 (Homo sapiens, UniProt Q13464). Briefly: Inhibition of ROCK-1 (unknown origin).
Sequence of Rho-associated protein kinase 1 (Q13464 whole entry): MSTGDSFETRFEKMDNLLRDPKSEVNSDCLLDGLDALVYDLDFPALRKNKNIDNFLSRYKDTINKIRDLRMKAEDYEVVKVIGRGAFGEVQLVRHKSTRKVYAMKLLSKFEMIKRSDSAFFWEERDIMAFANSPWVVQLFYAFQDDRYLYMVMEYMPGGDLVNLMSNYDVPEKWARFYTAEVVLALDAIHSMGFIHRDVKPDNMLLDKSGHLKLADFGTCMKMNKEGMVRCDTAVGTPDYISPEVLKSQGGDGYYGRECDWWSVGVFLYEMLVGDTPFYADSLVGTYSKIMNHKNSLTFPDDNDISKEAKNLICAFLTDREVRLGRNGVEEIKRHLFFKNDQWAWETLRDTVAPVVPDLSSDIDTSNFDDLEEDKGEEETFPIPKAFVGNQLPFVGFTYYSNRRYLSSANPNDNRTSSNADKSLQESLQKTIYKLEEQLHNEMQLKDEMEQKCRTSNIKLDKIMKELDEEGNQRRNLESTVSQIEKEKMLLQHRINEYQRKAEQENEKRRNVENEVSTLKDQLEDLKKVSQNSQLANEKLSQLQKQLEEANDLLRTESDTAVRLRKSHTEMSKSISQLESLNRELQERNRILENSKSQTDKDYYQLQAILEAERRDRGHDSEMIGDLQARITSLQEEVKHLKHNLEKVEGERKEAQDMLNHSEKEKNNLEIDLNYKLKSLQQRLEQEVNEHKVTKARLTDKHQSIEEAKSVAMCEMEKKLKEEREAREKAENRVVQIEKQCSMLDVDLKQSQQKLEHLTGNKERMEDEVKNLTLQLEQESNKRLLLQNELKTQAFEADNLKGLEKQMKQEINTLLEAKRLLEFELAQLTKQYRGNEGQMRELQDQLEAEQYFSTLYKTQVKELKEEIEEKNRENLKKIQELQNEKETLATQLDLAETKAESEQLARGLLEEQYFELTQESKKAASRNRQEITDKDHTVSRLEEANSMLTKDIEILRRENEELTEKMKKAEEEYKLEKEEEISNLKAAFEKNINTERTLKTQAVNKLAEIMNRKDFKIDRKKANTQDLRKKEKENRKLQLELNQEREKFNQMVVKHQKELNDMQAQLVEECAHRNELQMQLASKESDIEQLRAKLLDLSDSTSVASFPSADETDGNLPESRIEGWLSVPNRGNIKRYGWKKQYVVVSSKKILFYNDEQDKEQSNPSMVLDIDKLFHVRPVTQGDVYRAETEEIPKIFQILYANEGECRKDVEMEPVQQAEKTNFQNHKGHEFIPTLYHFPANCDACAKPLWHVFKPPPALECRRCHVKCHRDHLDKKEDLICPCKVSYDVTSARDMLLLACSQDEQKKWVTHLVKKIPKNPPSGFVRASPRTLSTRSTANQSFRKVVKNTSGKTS
The nature of assay [4]: Inhibition of PKA (unknown origin). On the set-up: species or system Homo sapiens.

`Cc1cncc2cccc(S(=O)(=O)N3CCCNC[C@@H]3C)c12`: the IC50 (usually the concentration needed to halve the response being measured) in assay [1] came out at 3030 nM.

Consider `C[C@@H](N)[C@H]1CC[C@H](C(=O)Nc2ccnc3[nH]ccc23)CC1`, for which the IC50 in assay [2] was found to be 10 nM; in assay [3], 30 nM; in assay [4] it was 290 nM.
